Test results published in ChEMBL document CHEMBL1201862, “PubChem BioAssay data set” (2004).
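How tested: cells in 96-well plates exposed to compound for 48 hours at five concentrations. At the GI50, growth is halved.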 Calls of active or inactive are those of the source. No stated cut-off is given here; in the data, active = GI50 up to about 1.1 µM and inactive = higher.

Legend:
Assay in all cases: growth of human tumour cells (NCI), 48 h
SF-295 = tested on: SF-295
K562 = tested on: K562
DLD-1 = tested on: DLD-1
UACC-257 = tested on: UACC-257
M19-MEL = tested on: M19-MEL
HL-60 = tested on: HL-60
SR = tested on: SR
A498 = tested on: A498
HCT-116 = tested on: HCT-116
COLO 205 = tested on: COLO 205
SW-620 = tested on: SW-620
NCI-H23 = tested on: NCI-H23
NCI-H226 = tested on: NCI-H226
ACHN = tested on: ACHN
KM-20L2 = tested on: KM-20L2
DMS-273 = tested on: DMS-273
UO-31 = tested on: UO-31
IGROV-1 = tested on: IGROV-1
SN12C = tested on: SN12C
SK-MEL-28 = tested on: SK-MEL-28
M14 = tested on: M14
OVCAR-4 = tested on: OVCAR-4
EKVX = tested on: EKVX
RXF 393 = tested on: RXF 393
DMS-114 = tested on: DMS-114
HCC 2998 = tested on: HCC 2998
SNB-75 = tested on: SNB-75
SNB-19 = tested on: SNB-19
CCRF-CEM = tested on: CCRF-CEM
U-251 = tested on: U-251
LXFL 529 = tested on: LXFL 529
SK-MEL-5 = tested on: SK-MEL-5
LOX IMVI = tested on: LOX IMVI
786-0 = tested on: 786-0
HCT-15 = tested on: HCT-15
SK-MEL-2 = tested on: SK-MEL-2
NCI-H460 = tested on: NCI-H460
HOP-62 = tested on: HOP-62
MOLT-4 = tested on: MOLT-4
SF-268 = tested on: SF-268
RPMI-8226 = tested on: RPMI-8226
HT-29 = tested on: HT-29
OVCAR-3 = tested on: OVCAR-3
A549 = tested on: A549
UACC-62 = tested on: UACC-62
OVCAR-8 = tested on: OVCAR-8
TK-10 = tested on: TK-10
Malme-3M = tested on: Malme-3M
SF-539 = tested on: SF-539
SK-OV-3 = tested on: SK-OV-3
HOP-92 = tested on: HOP-92
OVCAR-5 = tested on: OVCAR-5
SNB-78 = tested on: SNB-78
NCI-H522 = tested on: NCI-H522
KM12 = tested on: KM12
CAKI-1 = tested on: CAKI-1
HOP-18 = tested on: HOP-18

## CC(C)C1CNC2N1C(=O)C2(C)OCc1ccccc1 (centres undefined)
SF-295
  GI50: > 100 µM (inactive)
K562
  GI50: > 100 µM (inactive)
DLD-1
  GI50: > 100 µM (inactive)
UACC-257
  GI50: > 100 µM (inactive)
M19-MEL
  GI50: > 100 µM (inactive)
HL-60
  GI50: > 100 µM (inactive)
SR
  GI50: 78.5 µM (inactive)
A498
  GI50: > 100 µM (inactive)
HCT-116
  GI50: > 100 µM (inactive)
COLO 205
  GI50: > 100 µM (inactive)
SW-620
  GI50: > 100 µM (inactive)
NCI-H23
  GI50: > 100 µM (inactive)
NCI-H226
  GI50: 40.6 µM (inactive)
ACHN
  GI50: > 100 µM (inactive)
KM-20L2
  GI50: > 100 µM (inactive)
DMS-273
  GI50: > 100 µM (inactive)
UO-31
  GI50: 81.5 µM (inactive)
IGROV-1
  GI50: > 100 µM (inactive)
SN12C
  GI50: > 100 µM (inactive)
SK-MEL-28
  GI50: > 100 µM (inactive)
M14
  GI50: > 100 µM (inactive)
OVCAR-4
  GI50: > 100 µM (inactive)
EKVX
  GI50: > 100 µM (inactive)
RXF 393
  GI50: > 100 µM (inactive)
DMS-114
  GI50: > 100 µM (inactive)
HCC 2998
  GI50: > 100 µM (inactive)
SNB-75
  GI50: 48.2 µM (inactive)
SNB-19
  GI50: > 100 µM (inactive)
CCRF-CEM
  GI50: > 100 µM (inactive)
U-251
  GI50: > 100 µM (inactive)
LXFL 529
  GI50: > 100 µM (inactive)
SK-MEL-5
  GI50: > 100 µM (inactive)
LOX IMVI
  GI50: > 100 µM (inactive)
786-0
  GI50: > 100 µM (inactive)
HCT-15
  GI50: > 100 µM
SK-MEL-2
  GI50: > 100 µM (inactive)
NCI-H460
  GI50: > 100 µM (inactive)
HOP-62
  GI50: > 100 µM (inactive)
MOLT-4
  GI50: 80.5 µM (inactive)
SF-268
  GI50: > 100 µM (inactive)
RPMI-8226
  GI50: 91.2 µM (inactive)
HT-29
  GI50: > 100 µM (inactive)
OVCAR-3
  GI50: > 100 µM (inactive)
A549
  GI50: > 100 µM (inactive)
UACC-62
  GI50: > 100 µM (inactive)
OVCAR-8
  GI50: > 100 µM (inactive)
TK-10
  GI50: > 100 µM (inactive)
Malme-3M
  GI50: > 100 µM (inactive)
SF-539
  GI50: > 100 µM (inactive)

## C/C(=C(/C)c1cc[n+](C)cc1)c1cc[n+](C)cc1
SK-OV-3
  GI50: > 75 µM (inactive)
SF-295
  GI50: > 75 µM (inactive)
K562
  GI50: 54.8 µM (inactive)
DLD-1
  GI50: 39.9 µM (inactive)
UACC-257
  GI50: > 75 µM (inactive)
HL-60
  GI50: > 75 µM (inactive)
A498
  GI50: > 75 µM (inactive)
HCT-116
  GI50: > 75 µM (inactive)
HOP-92
  GI50: > 75 µM (inactive)
COLO 205
  GI50: 27.2 µM (inactive)
OVCAR-5
  GI50: > 75 µM (inactive)
SNB-78
  GI50: > 75 µM (inactive)
NCI-H522
  GI50: 18.8 µM (inactive)
NCI-H23
  GI50: > 75 µM (inactive)
ACHN
  GI50: > 75 µM (inactive)
KM-20L2
  GI50: > 75 µM (inactive)
DMS-273
  GI50: 36.1 µM (inactive)
UO-31
  GI50: > 75 µM (inactive)
IGROV-1
  GI50: 34.4 µM (inactive)
SN12C
  GI50: > 75 µM (inactive)
SK-MEL-28
  GI50: > 75 µM (inactive)
M14
  GI50: > 75 µM (inactive)
OVCAR-4
  GI50: 69.8 µM (inactive)
EKVX
  GI50: > 75 µM (inactive)
RXF 393
  GI50: > 75 µM (inactive)
KM12
  GI50: > 75 µM (inactive)
DMS-114
  GI50: 16.2 µM (inactive)
SNB-75
  GI50: > 75 µM (inactive)
SNB-19
  GI50: > 75 µM (inactive)
CCRF-CEM
  GI50: > 75 µM (inactive)
CAKI-1
  GI50: > 75 µM (inactive)
U-251
  GI50: > 75 µM (inactive)
HOP-18
  GI50: > 75 µM (inactive)
LXFL 529
  GI50: 69.8 µM (inactive)
SK-MEL-5
  GI50: > 75 µM (inactive)
LOX IMVI
  GI50: 43.6 µM (inactive)
786-0
  GI50: > 75 µM (inactive)
HCT-15
  GI50: 52.7 µM
SK-MEL-2
  GI50: > 75 µM (inactive)
NCI-H460
  GI50: > 75 µM (inactive)
HOP-62
  GI50: > 75 µM (inactive)
MOLT-4
  GI50: > 75 µM (inactive)
SF-268
  GI50: > 75 µM (inactive)
RPMI-8226
  GI50: 28 µM (inactive)
HT-29
  GI50: > 75 µM (inactive)
OVCAR-3
  GI50: 9.12 µM (inactive)
A549
  GI50: > 75 µM (inactive)
UACC-62
  GI50: > 75 µM (inactive)
OVCAR-8
  GI50: > 75 µM (inactive)
TK-10
  GI50: > 75 µM (inactive)
Malme-3M
  GI50: > 75 µM (inactive)
SF-539
  GI50: > 75 µM (inactive)

## CN(C)c1cccc(-c2cc(O)c3ccccc3n2)c1
SK-OV-3
  GI50: 68.1 µM (inactive)
K562
  GI50: > 10 µM (inactive)
DLD-1
  GI50: 26.8 µM (inactive)
UACC-257
  GI50: 31.9 µM (inactive)
M19-MEL
  GI50: 76.7 µM (inactive)
HL-60
  GI50: 28.2 µM (inactive)
SR
  GI50: 45.5 µM (inactive)
COLO 205
  GI50: 48.2 µM (inactive)
SW-620
  GI50: 37 µM (inactive)
SNB-78
  GI50: 82 µM (inactive)
NCI-H522
  GI50: 24.2 µM (inactive)
NCI-H23
  GI50: 54.8 µM (inactive)
ACHN
  GI50: > 100 µM (inactive)
DMS-273
  GI50: 45.9 µM (inactive)
UO-31
  GI50: 47.6 µM (inactive)
IGROV-1
  GI50: 80.9 µM (inactive)
SN12C
  GI50: 47.8 µM (inactive)
SK-MEL-28
  GI50: 86.1 µM (inactive)
M14
  GI50: 43.3 µM (inactive)
EKVX
  GI50: > 100 µM (inactive)
KM12
  GI50: 34.4 µM (inactive)
HCC 2998
  GI50: 40.4 µM (inactive)
SNB-19
  GI50: 39 µM (inactive)
CCRF-CEM
  GI50: 41.7 µM (inactive)
U-251
  GI50: 55.8 µM (inactive)
LXFL 529
  GI50: 57.7 µM (inactive)
LOX IMVI
  GI50: 71.4 µM (inactive)
786-0
  GI50: 49.7 µM (inactive)
HCT-15
  GI50: 44.4 µM
NCI-H460
  GI50: 13.6 µM (inactive)
HOP-62
  GI50: 53.7 µM (inactive)
MOLT-4
  GI50: 61.5 µM (inactive)
RPMI-8226
  GI50: 34.8 µM (inactive)
HT-29
  GI50: 25.2 µM (inactive)
A549
  GI50: 57.3 µM (inactive)
UACC-62
  GI50: 42 µM (inactive)
OVCAR-8
  GI50: 75.9 µM (inactive)
TK-10
  GI50: > 100 µM (inactive)
Malme-3M
  GI50: 31.7 µM (inactive)
SF-539
  GI50: 30.4 µM (inactive)

## Cc1cc(O)nc(NNC(C#N)c2ccco2)n1 (centres undefined)
SK-OV-3
  GI50: > 100 µM (inactive)
SF-295
  GI50: > 100 µM (inactive)
K562
  GI50: > 100 µM (inactive)
DLD-1
  GI50: > 100 µM (inactive)
UACC-257
  GI50: > 100 µM (inactive)
M19-MEL
  GI50: > 100 µM (inactive)
HL-60
  GI50: > 100 µM (inactive)
SR
  GI50: > 100 µM (inactive)
HCT-116
  GI50: > 100 µM (inactive)
HOP-92
  GI50: > 100 µM (inactive)
COLO 205
  GI50: > 100 µM (inactive)
OVCAR-5
  GI50: > 100 µM (inactive)
SW-620
  GI50: > 100 µM (inactive)
SNB-78
  GI50: > 100 µM (inactive)
NCI-H522
  GI50: > 100 µM (inactive)
NCI-H23
  GI50: > 100 µM (inactive)
NCI-H226
  GI50: > 100 µM (inactive)
ACHN
  GI50: > 100 µM (inactive)
KM-20L2
  GI50: > 100 µM (inactive)
DMS-273
  GI50: > 100 µM (inactive)
UO-31
  GI50: > 100 µM (inactive)
IGROV-1
  GI50: > 100 µM (inactive)
SN12C
  GI50: > 100 µM (inactive)
SK-MEL-28
  GI50: > 100 µM (inactive)
M14
  GI50: > 100 µM (inactive)
OVCAR-4
  GI50: > 100 µM (inactive)
RXF 393
  GI50: > 100 µM (inactive)
KM12
  GI50: > 100 µM (inactive)
DMS-114
  GI50: > 100 µM (inactive)
SNB-75
  GI50: 37.2 µM (inactive)
CCRF-CEM
  GI50: > 100 µM (inactive)
CAKI-1
  GI50: > 100 µM (inactive)
U-251
  GI50: > 100 µM (inactive)
HOP-18
  GI50: > 100 µM (inactive)
LXFL 529
  GI50: > 100 µM (inactive)
SK-MEL-5
  GI50: > 100 µM (inactive)
LOX IMVI
  GI50: > 100 µM (inactive)
786-0
  GI50: > 100 µM (inactive)
HCT-15
  GI50: > 100 µM
SK-MEL-2
  GI50: > 100 µM (inactive)
NCI-H460
  GI50: > 100 µM (inactive)
HOP-62
  GI50: > 100 µM (inactive)
MOLT-4
  GI50: > 100 µM (inactive)
SF-268
  GI50: > 100 µM (inactive)
RPMI-8226
  GI50: > 100 µM (inactive)
HT-29
  GI50: > 100 µM (inactive)
OVCAR-3
  GI50: > 100 µM (inactive)
A549
  GI50: > 100 µM (inactive)
UACC-62
  GI50: > 100 µM (inactive)
OVCAR-8
  GI50: > 100 µM (inactive)
TK-10
  GI50: > 100 µM (inactive)
Malme-3M
  GI50: > 100 µM (inactive)
SF-539
  GI50: > 100 µM (inactive)
